Laboratory results reported in the NIST ThermoML archive (doi:10.1021/je050389b).

Test: xn = mol fraction of the nth substance listed
Conditions: Liquid; for viscosity: 100.5 kPa; for mass density: 101 kPa

CCCCCC(=O)OCC [ethyl hexanoate] + CCO
Conditions | mass density, 288.15 K [kg/m3] | mass density, 298.15 K [kg/m3] | mass density, 308.15 K [kg/m3] | mass density, 318.15 K [kg/m3] | viscosity, 288.15 K [mPa·s] | viscosity, 298.15 K [mPa·s] | viscosity, 308.15 K [mPa·s] | viscosity, 318.15 K [mPa·s]
x1 = 0.05 | 804.18 | 795.44 | 786.59 | 777.58 | 1.241 | 1.031 | 0.866 | 0.732
x1 = 0.1 | 812.99 | 804.11 | 795.12 | 785.96 | 1.182 | 0.982 | 0.829 | 0.71
x1 = 0.15 | 820.54 | 811.53 | 802.42 | 793.14 | 1.139 | 0.948 | 0.806 | 0.691
x1 = 0.2 | 827.14 | 818.05 | 808.85 | 799.48 | 1.106 | 0.926 | 0.789 | 0.676
x1 = 0.25 | 832.89 | 823.72 | 814.44 | 805.01 | 1.082 | 0.909 | 0.777 | 0.667
x1 = 0.3 | 837.94 | 828.72 | 819.38 | 809.89 | 1.062 | 0.897 | 0.769 | 0.662
x1 = 0.35 | 842.47 | 833.2 | 823.82 | 814.29 | 1.051 | 0.889 | 0.763 | 0.659
x1 = 0.4 | 846.5 | 837.18 | 827.76 | 818.2 | 1.045 | 0.883 | 0.759 | 0.657
x1 = 0.45 | 850.15 | 840.82 | 831.37 | 821.8 | 1.039 | 0.88 | 0.758 | 0.657
x1 = 0.5 | 853.47 | 844.11 | 834.63 | 825.05 | 1.037 | 0.88 | 0.759 | 0.658
x1 = 0.55 | 856.51 | 847.12 | 837.64 | 828.05 | 1.038 | 0.882 | 0.761 | 0.662
x1 = 0.6 | 859.28 | 849.88 | 840.39 | 830.79 | 1.039 | 0.888 | 0.765 | 0.665
x1 = 0.65 | 861.84 | 852.43 | 842.94 | 833.34 | 1.045 | 0.892 | 0.767 | 0.668
x1 = 0.7 | 864.22 | 854.82 | 845.33 | 835.75 | 1.048 | 0.896 | 0.773 | 0.674
x1 = 0.75 | 866.43 | 857.02 | 847.54 | 837.97 | 1.054 | 0.902 | 0.779 | 0.68
x1 = 0.8 | 868.48 | 859.09 | 849.63 | 840.08 | 1.064 | 0.91 | 0.786 | 0.686
x1 = 0.85 | 870.41 | 861.04 | 851.59 | 842.07 | 1.073 | 0.919 | 0.794 | 0.694
x1 = 0.9 | 872.22 | 862.86 | 853.45 | 843.97 | 1.086 | 0.929 | 0.803 | 0.703
x1 = 0.95 | 873.99 | 864.66 | 855.27 | 845.83 | 1.1 | 0.94 | 0.815 | 0.712
x1 = 1 | 875.64 | 866.29 | 856.91 | 847.5 | 1.102 | 0.94 | 0.814 | 0.711
